Measured values: patent EP0209274A2, “Furanone derivatives” (ELI LILLY AND COMPANY, priority 1985, dated 1987)

Biological target: T1, fatty acid cyclooxygenase (Homo sapiens, UniProt P23219)
T1 construct: Microsomes were prepared from 185 bags of human platelets; from tissue; host or cells: human platelets (solubilized microsomes, then electrofocusing and Sephadex G-200)
Test: Fatty Acid Cyclooxygenase (FCO) Assay
Format: biochemical
Conditions: 30 µg/ml test compound; inhibition of formation of PGE2; enzyme from human platelets
Protocol: Microsomes were prepared from 185 bags of human platelets (each bag containing the platelets from one pint of blood prepared using differential centrifugation procedures). The platelets from approximately 60 bags were prepared at one time. Platelet-rich plasma (500 g) was centrifuged at 10,000 x g for 20 minutes, and the platelet pellet was suspended in 100 ml of 0.1M. potassium phosphate buffer, pH 8.0, with a Teflon glass homogenizer and sonicated for 5.0 minutes with a Bronson Sonifier (Model 350) in a rosette flask cooled in ice water. Disrupted platelets were centrifuged 15 minutes at 10,000 x g. The supernatant was centrifuged at 100,000 x g for 90 minutes and the microsomal pellets were homogenized in 25 ml of 20% sucrose containing 1.0% Triton X-100 detergent. After 30 minutes at 4°C, the solubilized microsomes were centrifuged at 100,000 x g for 60 minutes. The yellow supernatant was removed and stored at -70°C.
The solubilized fatty acid cyclooxygenase was applied to a 440 ml electrofocusing column (LKB-8012) containing 1% phisolytes (Brinkman Instruments, Westburgh, NY), pH 2-11, with the cathode at the top of the column. The enzyme was layered onto the column at the appropriate time so that its sucrose concentration was equal to that of the column gradient. This was accomplished by checking the gradient concentration periodically with a sucrose hand refractometer. Electrofocusing was carried out for 16 hours with an initial voltage of 400 V and a final voltage of 900-1,000 volts. Fractions were collected (20 ml) and assayed for PGE2 formation. Active peak fractions were pooled and concentrated by ultrafiltration (XM 100A) to a volume of 3-5 ml.
Active fractions from electrofocusing were applied to a G-200 Sephadex column (2 cm x 46 cm) and eluted with 10 mM potassium phosphate buffer, pH 7.0, in 5 ml fractions. After assay, active fractions were pooled and concentrated to 1.0 ml by ultrafiltration (XM 100A), and kept frozen at -70°C.
Enzyme activity was determined by assaying for PGE2 formation by preincubating the enzyme with 10 mmol/l imidazole phosphate buffer, pH 8.0, 2 mmol/l epinephrine, 2 mmol/1 methemoglobin, and the test compound (30 pg/ml) in a total volume of 0.2 ml for one minute at 37°C. After preincubation, 5 mmol/1 ^14C-arachidonic acid were added and the mixture was incubated an additional 0.5 minutes at 37°C. The enzyme reaction was stopped by the addition of 20 µl of indomethacin (2 mg/ml) in alcohol.
The reaction mixture was spotted (50 pl) on a silica gel (LQ6D) plate and subjected to TLC. The solvent system consisted of chloroform-methanol-glacial acetic acid (90:5:5, v/v/v) and the relative mobilities were PGF2a = 0.235, and PGE2 = 0.47. The silica gel on the plate was scraped in 1 cm sections, suspended in 5 ml of the scintillation fluid [5.88 g of 2,5-diphenyl-oxazole and 118 mg of 1,4-bis(5-phenyloxazol-2-yl)benzene] dissolved in 650 ml of toluene and 350 ml of Triton X-100) and the radioactivity was determined in an Isocap/300 liquid scintillation counter (Searle Analytic, Inc., Southfield, MI). Another 50 µl of the mixture was added to 10 ml of the Triton X-100 based scintillation fluid, and the radioactivity was determined so that the amount of radioactivity recovery from the TLC plate could be ascertained. PGE2 formation for each test compound was determined as a percent of control experiments wherein no test compound was added. Data is expressed in Table I as the percent inhibition of formation of PGE2 at a test compound concentration of 30 pg/ml.

T1 sequence (P23219 24-599): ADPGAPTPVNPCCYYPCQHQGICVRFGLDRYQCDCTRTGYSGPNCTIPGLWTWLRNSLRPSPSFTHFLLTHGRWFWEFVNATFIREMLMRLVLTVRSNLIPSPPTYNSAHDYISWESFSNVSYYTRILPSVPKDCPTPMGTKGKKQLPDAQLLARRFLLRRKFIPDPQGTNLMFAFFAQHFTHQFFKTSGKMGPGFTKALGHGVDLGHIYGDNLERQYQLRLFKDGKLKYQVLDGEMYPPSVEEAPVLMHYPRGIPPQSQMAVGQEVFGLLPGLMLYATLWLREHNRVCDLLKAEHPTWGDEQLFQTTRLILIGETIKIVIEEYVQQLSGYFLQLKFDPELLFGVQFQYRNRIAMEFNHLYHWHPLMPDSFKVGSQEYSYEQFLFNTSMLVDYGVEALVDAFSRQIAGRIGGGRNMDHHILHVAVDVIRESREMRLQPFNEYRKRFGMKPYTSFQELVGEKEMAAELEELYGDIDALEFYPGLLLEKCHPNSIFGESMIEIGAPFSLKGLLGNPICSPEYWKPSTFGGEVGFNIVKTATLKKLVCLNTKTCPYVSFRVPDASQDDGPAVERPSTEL

inhibition at 30 µg/mL [%]	Compound
77	CCCCC/C=C\C/C=C\CCCCCCC1=CC(=O)OC1O (stereo not shown) [Example 1, (Z,Z)-4-(7,10-hexadecadienyl)-5-hydroxy-2-(5H)-furanone]
75	CC/C=C\C/C=C\C/C=C\CCCCCCC1=CC(=O)OC1O (stereo not shown) [Example 2, (Z,Z,Z)-4-(7,10,13-hexadecatrienyl)-5-hydroxy-2(5H)-furanone]
67	CCCCC/C=C\C/C=C\C/C=C\C/C=C\CCC1=CC(=O)OC1O (stereo not shown) [Example 3, (Z,Z,Z,Z)-5-hydroxy-4-(3,6,9,12-octa-decatetraenyl)-2(5H)-furanone]
52	CCCCCCCC/C=C/CCCCCCC1=CC(=O)OC1O (stereo not shown) [Example 4, (E)-4-(7-hexadecenyl)-5-hydroxy-2(5H)-furanone]
75	CCCCC/C=C\C/C=C\C/C=C\CCCC1=CC(=O)OC1O (stereo not shown) [Example 5, (Z,Z,Z)-4-(4,7,10-hexadecatrienyl)-5-hydroxy-2(5H)-furanone]
46	CC/C=C\C/C=C\C/C=C\C/C=C\C/C=C\C/C=C\CC1=CC(=O)OC1O (stereo not shown) [Example 9, (Z,Z,Z,Z,Z,Z)-4-(2,5,8,11,14,17-eicosa-hexaenyl)-5-hydroxy-2(5H)-furanone]
61	CCCCCCCC/C=C\CCCCCCC1=CC(=O)OC1O (stereo not shown) [Example 11, (Z)-4-(7-hexadecenyl)-5-hydroxy-2(5H)-furanone]
16	O=C1C=C(CCCCOc2ccc3ccccc3c2)C(O)O1 (stereo not shown) [Example 12, 5-Hydroxy-4-[4-(2-naphthalenyloxy)butyl]-2(5H)-furanone]
47	CC(C)=CCCC(C)=CCCC(C)=CCCC1=CC(=O)OC1O (stereo not shown) [Example 13, 5-Hydroxy-4-(4,8,12-trimethyl-3,7,11-tri-decatrienyl)-2(5H)-furanone]
< 5	CC(C)=CCC/C(C)=C/CCC1=CC(=O)OC1O (stereo not shown) [Example 14, (E,E)-4-(4,8-dimethyl-3,7-nonadienyl)-5-hydroxy-2(5H)-furanone]
32	CC(C)=CCCC(C)=CCCC(C=O)=CCCC1=CC(=O)OC1O (stereo not shown) [Example 15, 2-[3-(2,5-dihydro-2-hydroxy-5-oxo-3-furanyl)-propylidene]-6,10-dimethyl-5,9-undecadienal]
20	O=C1C=C(CCCCCOc2ccccc2Cc2ccccc2)C(O)O1 (stereo not shown) [Example 18, 5-Hydroxy-4-[5-(2-benzylphenoxy)pentyl]-2(5H)-furanone]
14	CC(C)=CCCC(C)=CCCC(=CCCC1=CC(=O)OC1O)CO (stereo not shown) [Example 19, 5-Hydroxy-4-[4-(hydroxymethyl)-8,12-dimethyl-3,7,11-tridecatrienyl]-2(5H)-furanone]
